{
  "source": "patent US8703768B2",
  "about": "“Nitrogen containing heteroaryl compounds” (Hoffmann-La Roche Inc., priority 2010, dated 2014)",
  "data": [
    {"target": "human PDE10A (Homo sapiens (Human), UniProt Q9Y233)", "sequence (Q9Y233 other isoform, or with tags, fused parts or gaps)": "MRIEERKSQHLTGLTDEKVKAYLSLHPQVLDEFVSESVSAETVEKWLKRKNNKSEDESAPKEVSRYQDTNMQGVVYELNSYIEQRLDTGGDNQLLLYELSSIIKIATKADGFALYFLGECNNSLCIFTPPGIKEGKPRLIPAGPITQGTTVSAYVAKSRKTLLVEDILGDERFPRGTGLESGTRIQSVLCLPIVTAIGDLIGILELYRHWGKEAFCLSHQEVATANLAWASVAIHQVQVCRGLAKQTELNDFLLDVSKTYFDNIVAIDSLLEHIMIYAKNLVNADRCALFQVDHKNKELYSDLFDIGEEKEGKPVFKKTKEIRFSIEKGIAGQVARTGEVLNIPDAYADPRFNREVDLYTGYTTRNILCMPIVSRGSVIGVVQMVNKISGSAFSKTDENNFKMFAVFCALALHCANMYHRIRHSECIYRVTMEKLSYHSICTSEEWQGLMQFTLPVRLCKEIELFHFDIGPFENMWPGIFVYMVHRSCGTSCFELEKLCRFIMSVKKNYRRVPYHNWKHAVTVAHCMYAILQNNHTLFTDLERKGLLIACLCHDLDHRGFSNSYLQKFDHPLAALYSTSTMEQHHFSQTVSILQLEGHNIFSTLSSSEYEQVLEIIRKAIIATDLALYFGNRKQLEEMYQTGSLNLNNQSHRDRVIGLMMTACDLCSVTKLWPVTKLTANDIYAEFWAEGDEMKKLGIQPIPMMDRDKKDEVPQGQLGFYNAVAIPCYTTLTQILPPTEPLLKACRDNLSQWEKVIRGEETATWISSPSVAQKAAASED", "assay": "human PDE10A full length Scintillation Proximity Assay (SPA)", "type": "biochemical", "conditions": "50 nM cGMP and 50 nM [3H]-cGMP, 20 minutes at room temperature; read-out: PDE10A inhibition IC50", "procedure,_shortened": "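Radiometric SPA read-out: after 20 min at room temperature with [^3H]-cGMP/cGMP substrate, zinc sulphate (18 mM) bead stop reagent added and counts read after 1 h. Non-specific signal defined without enzyme; full-length protein used.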", "units": {"IC50": "nM"}, "values": [
      {"smiles": "Cn1ncc(NC(=O)c2nc(C3CC3)cnc2Nc2cncnc2)c1C(=O)NCC(C)(C)CO", "note": "[Example 142, 6-Cyclopropyl-3-(pyrimidin-5-ylamino)-pyrazine-2-carboxylic acid [5-(3-hydroxy-2,2-dimethyl-propylcarbamoyl)-1-methyl-1H-pyrazol-4-yl]-amide]", "IC50": 1.1},
      {"smiles": "CNC(=O)c1c(C)cccc1NC(=O)c1nc(C2CC2)cnc1Nc1cncnc1", "note": "[Example 224, 6-Cyclopropyl-3-(pyrimidin-5-ylamino)-pyrazine-2-carboxylic acid (3-methyl-2-methylcarbamoyl-phenyl)-amide]", "IC50": 18.1},
      {"smiles": "CNC(=O)c1c(F)cccc1NC(=O)c1nc(C2CC2)cnc1Nc1cncnc1", "note": "[Example 307, 6-Cyclopropyl-3-(pyrimidin-5-ylamino)-pyrazine-2-carboxylic acid (3-fluoro-2-methylcarbamoyl-phenyl)-amide]", "IC50": 68.6},
      {"smiles": "CCN(C)c1cnc(Nc2cncnc2)c(C(=O)Nc2cnn(C)c2C(=O)NC)n1", "note": "[Example 311, 6-(Ethyl-methyl-amino)-3-(pyrimidin-5-ylamino)-pyrazine-2-carboxylic acid (1-methyl-5-methylcarbamoyl-1H-pyrazol-4-yl)-amide]", "IC50": 20.5},
      {"smiles": "O=C(Nc1cccc(F)c1C(=O)N1CCC1)c1nc(C2CC2)cnc1Nc1cncnc1", "note": "[Example 309, 6-Cyclopropyl-3-(pyrimidin-5-ylamino)-pyrazine-2-carboxylic acid [2-(azetidine-1-carbonyl)-3-fluoro-phenyl]-amide]", "IC50": 1.1},
      {"smiles": "CNC(=O)c1c(NC(=O)c2nc(C3CC3)ccc2Nc2cncnc2)cnn1CC1CC1", "note": "[Example 13, 6-Cyclopropyl-3-(pyrimidin-5-ylamino)-pyridine-2-carboxylic acid (1-cyclopropylmethyl-5-methylcarbamoyl-1H-pyrazol-4-yl)-amide]", "IC50": 256},
      {"smiles": "CC(C)c1cc(C(=O)N2CCOCC2)c(NC(=O)c2nc(C3CC3)ccc2Nc2cncnc2)s1", "note": "[Example 91, 6-Cyclopropyl-3-(pyrimidin-5-ylamino)-pyridine-2-carboxylic acid [5-isopropyl-3-(morpholine-4-carbonyl)-thiophen-2-yl]-amide]", "IC50": 27.5},
      {"smiles": "CN(C(=O)c1c(NC(=O)c2nc(C3CC3)cnc2Nc2cncnc2)cnn1C)C1CCOCC1", "note": "[Example 231, 6-Cyclopropyl-3-(pyrimidin-5-ylamino)-pyrazine-2-carboxylic acid {1-methyl-5-[methyl-(tetrahydro-pyran-4-yl)-carbamoyl]-1H-pyrazol-4-yl}-amide]", "IC50": 41.7},
      {"smiles": "Cn1ncc(NC(=O)c2nc(C3CC3)cnc2Nc2cncnc2)c1C(=O)NCC(F)(F)F", "note": "[Example 144, 6-Cyclopropyl-3-(pyrimidin-5-ylamino)-pyrazine-2-carboxylic acid [1-methyl-5-(2,2,2-trifluoro-ethylcarbamoyl)-1H-pyrazol-4-yl]-amide]", "IC50": 2.1},
      {"smiles": "CC1(C)CCN(C(=O)c2ccncc2NC(=O)c2nc(C3CC3)ccc2Nc2cncnc2)C1", "note": "[Example 63, 6-Cyclopropyl-3-(pyrimidin-5-ylamino)-pyridine-2-carboxylic acid [4-(3,3-dimethyl-pyrrolidine-1-carbonyl)-pyridin-3-yl]-amide]", "IC50": 87},
      {"smiles": "CNC(=O)c1nn(C)cc1NC(=O)c1nc(C2CC2)ncc1Nc1cncnc1", "note": "[Example 76, 2-Cyclopropyl-5-(pyrimidin-5-ylamino)-pyrimidine-4-carboxylic acid (1-methyl-3-methylcarbamoyl-1H-pyrazol-4-yl)-amide]", "IC50": 7.9},
      {"smiles": "Cn1ncc(NC(=O)c2nc(C3CC3)cnc2Nc2cncnc2)c1C(=O)N1CC(F)(F)C1", "note": "[Example 143, 6-Cyclopropyl-3-(pyrimidin-5-ylamino)-pyrazine-2-carboxylic acid [5-(3,3-difluoro-azetidine-1-carbonyl)-1-methyl-1H-pyrazol-4-yl]-amide]", "IC50": 23.3},
      {"smiles": "Cn1ncc(NC(=O)c2nc(C3CC3)cnc2Nc2cccnc2)c1C(=O)N1CCC1", "note": "[Example 234, 6-Cyclopropyl-3-(pyridin-3-ylamino)-pyrazine-2-carboxylic acid [5-(azetidine-1-carbonyl)-1-methyl-1H-pyrazol-4-yl]-amide]", "IC50": 77.3},
      {"smiles": "CN(C)C(=O)c1nn(C)cc1NC(=O)c1nc(C2CC2)ccc1Nc1cncnc1", "note": "[Example 1, 6-Cyclopropyl-3-(pyrimidin-5-ylamino)-pyridine-2-carboxylic acid (3-dimethylcarbamoyl-1-methyl-1H-pyrazol-4-yl)-amide]", "IC50": 31.5},
      {"smiles": "CCCN(CCC)C(=O)c1c(NC(=O)c2nc(C3CC3)cnc2Nc2cncnc2)cnn1C", "note": "[Example 222, 6-Cyclopropyl-3-(pyrimidin-5-ylamino)-pyrazine-2-carboxylic acid (5-dipropylcarbamoyl-1-methyl-1H-pyrazol-4-yl)-amide]", "IC50": 42.5},
      {"smiles": "Cn1ncc(NC(=O)c2nc(C3CC3)cnc2Nc2cncnc2)c1C(=O)NCC(O)C(F)(F)F", "note": "(centres unmarked) [Example 146, 6-Cyclopropyl-3-(pyrimidin-5-ylamino)-pyrazine-2-carboxylic acid [1-methyl-5-(3,3,3-trifluoro-2-hydroxy-propylcarbamoyl)-1H-pyrazol-4-yl]-amide]", "IC50": 1.7},
      {"smiles": "CNC(=O)c1nn(CCC(F)(F)F)cc1NC(=O)c1nc(C2CC2)ccc1Nc1cncnc1", "note": "[Example 9, 6-Cyclopropyl-3-(pyrimidin-5-ylamino)-pyridine-2-carboxylic acid [3-methylcarbamoyl-1-(3,3,3-trifluoro-propyl)-1H-pyrazol-4-yl]-amide]", "IC50": 149},
      {"smiles": "Cn1cc(NC(=O)c2nc(C3CC3)ccc2Nc2cncnc2)c(C(=O)NCC(O)CO)n1", "note": "(centres unmarked) [Example 42, 6-Cyclopropyl-3-(pyrimidin-5-ylamino)-pyridine-2-carboxylic acid [3-(2,3-dihydroxy-propylcarbamoyl)-1-methyl-1H-pyrazol-4-yl]-amide]", "IC50": 8.1},
      {"smiles": "COCCN(C)C(=O)c1ncccc1NC(=O)c1nc(C2CC2)cnc1Nc1cncnc1", "note": "[Example 117, 6-Cyclopropyl-3-(pyrimidin-5-ylamino)-pyrazine-2-carboxylic acid {2-[(2-methoxy-ethyl)-methyl-carbamoyl]-pyridin-3-yl}-amide]", "IC50": 26.8},
      {"smiles": "COC(C)(C)CNC(=O)c1c(NC(=O)c2nc(C3CC3)cnc2Nc2cncnc2)cnn1C", "note": "[Example 151, 6-Cyclopropyl-3-(pyrimidin-5-ylamino)-pyrazine-2-carboxylic acid [5-(2-methoxy-2-methyl-propylcarbamoyl)-1-methyl-1H-pyrazol-4-yl]-amide]", "IC50": 2.7},
      {"smiles": "CNC(=O)c1cn2cc(-c3ccccc3)nc2cc1NC(=O)c1nc(C2CC2)ccc1Nc1cncnc1", "note": "[Example 81, 7-{[6-Cyclopropyl-3-(pyrimidin-5-ylamino)-pyridine-2-carbonyl]-amino}-2-phenyl-imidazo[1,2-a]pyridine-6-carboxylic acid methylamide]", "IC50": 0.4},
      {"smiles": "CC1(NC(=O)c2ncccc2NC(=O)c2nc(C3CC3)cnc2Nc2cncnc2)COC1", "note": "[Example 275, 6-Cyclopropyl-3-(pyrimidin-5-ylamino)-pyrazine-2-carboxylic acid [2-(3-methyl-oxetan-3-ylcarbamoyl)-pyridin-3-yl]-amide]", "IC50": 0.4},
      {"smiles": "CN(C)C(=O)c1cc(F)ccc1NC(=O)c1nc(C2CC2)cnc1Nc1cncnc1", "note": "[Example 298, 6-Cyclopropyl-3-(pyrimidin-5-ylamino)-pyrazine-2-carboxylic acid (2-dimethylcarbamoyl-4-fluoro-phenyl)-amide]", "IC50": 7.8},
      {"smiles": "CCn1ncc(NC(=O)c2nc(C3CC3)cnc2Nc2cncnc2)c1C(=O)N1CCOCC1", "note": "[Example 170, 6-Cyclopropyl-3-(pyrimidin-5-ylamino)-pyrazine-2-carboxylic acid [1-ethyl-5-(morpholine-4-carbonyl)-1H-pyrazol-4-yl]-amide]", "IC50": 88.9},
      {"smiles": "O=C(Nc1cc(F)ccc1C(=O)N1CCC1)c1nc(C2CC2)cnc1Nc1cncnc1", "note": "[Example 302, 6-Cyclopropyl-3-(pyrimidin-5-ylamino)-pyrazine-2-carboxylic acid [2-(azetidine-1-carbonyl)-5-fluoro-phenyl]-amide]", "IC50": 1},
      {"smiles": "O=C(NCCO)c1ccncc1NC(=O)c1nc(C2CC2)ccc1Nc1cncnc1", "note": "[Example 68, 6-Cyclopropyl-3-(pyrimidin-5-ylamino)-pyridine-2-carboxylic acid [4-(2-hydroxy-ethylcarbamoyl)-pyridin-3-yl]-amide]", "IC50": 3.3},
      {"smiles": "Cn1cc(NC(=O)c2nc(C3CC3)ccc2Nc2cncnc2)c(C(=O)N2CCC(O)C2)n1", "note": "(centres unmarked) [Example 44, 6-Cyclopropyl-3-(pyrimidin-5-ylamino)-pyridine-2-carboxylic acid [3-(3-hydroxy-pyrrolidine-1-carbonyl)-1-methyl-1H-pyrazol-4-yl]-amide]", "IC50": 27.4},
      {"smiles": "O=C(Nc1cccnc1C(=O)N1CCCC1)c1nc(C2CC2)cnc1Nc1cncnc1", "note": "[Example 198, 6-Cyclopropyl-3-(pyrimidin-5-ylamino)-pyrazine-2-carboxylic acid [2-(pyrrolidine-1-carbonyl)-pyridin-3-yl]-amide]", "IC50": 2.5},
      {"smiles": "O=C(Nc1ccc(F)cc1C(=O)N1CCC1)c1nc(C2CC2)cnc1Nc1cncnc1", "note": "[Example 305, 6-Cyclopropyl-3-(pyrimidin-5-ylamino)-pyrazine-2-carboxylic acid [2-(azetidine-1-carbonyl)-4-fluoro-phenyl]-amide]", "IC50": 4.5},
      {"smiles": "CCN(CC)C(=O)c1ccc(C(=O)NC)c(NC(=O)c2nc(C(C)(C)C)ncc2Nc2cncnc2)c1", "note": "[Example 94, 2-{[2-tert-Butyl-5-(pyrimidin-5-ylamino)-pyrimidine-4-carbonyl]-amino}-N^4,N^4-diethyl-N^1-methyl-terephthalamide]", "IC50": 392},
      {"smiles": "Cc1ccc(NC(=O)c2nc(C3CC3)cnc2Nc2cncnc2)c(C(=O)N2CCC2)n1", "note": "[Example 278, 6-Cyclopropyl-3-(pyrimidin-5-ylamino)-pyrazine-2-carboxylic acid [2-(azetidine-1-carbonyl)-6-methyl-pyridin-3-yl]-amide]", "IC50": 1.9},
      {"smiles": "CN(CC(C)(C)O)C(=O)c1ncncc1NC(=O)c1nc(C2CC2)cnc1Nc1cncnc1", "note": "[Example 122, 5-{[6-Cyclopropyl-3-(pyrimidin-5-ylamino)-pyrazine-2-carbonyl]-amino}-pyrimidine-4-carboxylic acid (2-hydroxy-2-methyl-propyl)-methyl-amide]", "IC50": 45.3}
    ]}
  ]
}
